Laboratory results: ChEMBL document CHEMBL4825729, “Modulators of immunoregulatory exonucleases PLD3 and PLD4 identified by high-throughput screen” (Bioorg Med Chem Lett, 2021)

Legend:
[1] = target: T1, 5'-3' exonuclease PLD3 (Homo sapiens, UniProt Q8IV08); assay: Inhibition of PLD3 (unknown origin) using 3'-dT-nNPP as substrate by fluorescence-based screening assay
T1 sequence (Q8IV08 whole entry): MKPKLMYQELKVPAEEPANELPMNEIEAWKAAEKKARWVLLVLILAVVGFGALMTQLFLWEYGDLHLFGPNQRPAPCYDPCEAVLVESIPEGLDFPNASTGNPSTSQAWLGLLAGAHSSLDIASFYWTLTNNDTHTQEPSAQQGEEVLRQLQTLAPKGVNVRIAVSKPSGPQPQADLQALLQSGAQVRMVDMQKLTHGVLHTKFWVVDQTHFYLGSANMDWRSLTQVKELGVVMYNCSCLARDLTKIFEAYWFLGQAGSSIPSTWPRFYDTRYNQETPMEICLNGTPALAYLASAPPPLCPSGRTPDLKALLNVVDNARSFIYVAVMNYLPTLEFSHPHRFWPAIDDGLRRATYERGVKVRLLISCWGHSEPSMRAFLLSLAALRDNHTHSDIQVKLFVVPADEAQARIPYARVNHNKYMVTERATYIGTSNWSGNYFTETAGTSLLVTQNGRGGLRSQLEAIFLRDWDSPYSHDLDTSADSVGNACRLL

[2] = target: T2, 5'-3' exonuclease PLD4 (Homo sapiens) (UniProt Q96BZ4); assay: Competitive inhibition of PLD4 (unknown origin) assessed as binding constant using varying concentration 3'-dT-MUP as substrate by fluorescence-based screening assay
T2 sequence (whole entry): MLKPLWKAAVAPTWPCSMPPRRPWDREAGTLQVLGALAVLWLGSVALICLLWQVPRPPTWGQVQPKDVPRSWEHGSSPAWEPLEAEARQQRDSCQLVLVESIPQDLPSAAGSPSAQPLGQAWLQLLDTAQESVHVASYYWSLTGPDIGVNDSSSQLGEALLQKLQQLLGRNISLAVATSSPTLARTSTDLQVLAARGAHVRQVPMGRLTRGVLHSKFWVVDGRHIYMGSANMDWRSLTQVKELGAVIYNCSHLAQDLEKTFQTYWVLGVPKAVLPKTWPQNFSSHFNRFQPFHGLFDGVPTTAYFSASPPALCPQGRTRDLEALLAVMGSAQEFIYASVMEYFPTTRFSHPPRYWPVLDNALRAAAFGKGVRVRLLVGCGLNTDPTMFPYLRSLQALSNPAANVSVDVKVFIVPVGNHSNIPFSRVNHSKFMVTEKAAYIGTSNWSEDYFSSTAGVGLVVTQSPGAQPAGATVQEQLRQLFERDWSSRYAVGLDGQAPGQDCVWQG

[3] = target: T3, 5'-3' exonuclease PLD4 (Homo sapiens, UniProt Q96BZ4); assay: Inhibition of PLD4 (unknown origin) using 3'-dT-MUP as substrate by fluorescence-based screening assay
T3 sequence (Q96BZ4 whole entry): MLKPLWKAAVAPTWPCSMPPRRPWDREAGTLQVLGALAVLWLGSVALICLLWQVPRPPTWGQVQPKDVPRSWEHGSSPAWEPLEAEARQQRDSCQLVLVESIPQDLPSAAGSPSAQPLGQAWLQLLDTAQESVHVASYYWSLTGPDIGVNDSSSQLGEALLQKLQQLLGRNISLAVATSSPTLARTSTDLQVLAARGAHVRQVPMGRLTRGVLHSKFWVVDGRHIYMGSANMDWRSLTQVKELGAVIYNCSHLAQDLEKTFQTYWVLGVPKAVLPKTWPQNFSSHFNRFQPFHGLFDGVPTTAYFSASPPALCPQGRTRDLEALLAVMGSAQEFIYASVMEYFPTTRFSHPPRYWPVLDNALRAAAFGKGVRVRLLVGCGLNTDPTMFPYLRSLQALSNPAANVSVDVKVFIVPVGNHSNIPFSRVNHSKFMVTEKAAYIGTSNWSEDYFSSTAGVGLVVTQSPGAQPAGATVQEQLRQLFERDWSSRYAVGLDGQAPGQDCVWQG

[4] = target: T4, 5'-3' exonuclease PLD3 (Homo sapiens) (UniProt Q8IV08); assay: Mixed type inhibition of PLD3 (unknown origin) assessed as binding constant using varying concentration 3'-dT-MUP as substrate by fluorescence-based screening assay
T4 sequence (whole entry): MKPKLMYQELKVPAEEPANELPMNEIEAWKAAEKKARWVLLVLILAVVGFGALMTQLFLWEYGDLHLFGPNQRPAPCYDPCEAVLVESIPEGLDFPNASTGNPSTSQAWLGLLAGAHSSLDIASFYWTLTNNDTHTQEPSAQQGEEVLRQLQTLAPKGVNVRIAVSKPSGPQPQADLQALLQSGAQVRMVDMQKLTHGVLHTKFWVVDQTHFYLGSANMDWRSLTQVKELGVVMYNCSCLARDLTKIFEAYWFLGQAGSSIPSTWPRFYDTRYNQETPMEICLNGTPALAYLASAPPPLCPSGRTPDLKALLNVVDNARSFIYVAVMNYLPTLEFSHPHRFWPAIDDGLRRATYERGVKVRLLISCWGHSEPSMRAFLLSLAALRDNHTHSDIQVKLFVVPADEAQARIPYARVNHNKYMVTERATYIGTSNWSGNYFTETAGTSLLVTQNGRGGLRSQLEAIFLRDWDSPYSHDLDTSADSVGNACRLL

[5] = target: T3, 5'-3' exonuclease PLD4; assay: Inhibition of PLD4 (unknown origin) using 3'-dT-nNPP as substrate by fluorescence-based screening assay
[6] = target: T2, 5'-3' exonuclease PLD4 (Homo sapiens); assay: Competitive inhibition of PLD4 (unknown origin) assessed as Km using varying concentration 3'-dT-MUP as substrate by fluorescence-based screening assay
[7] = target: T1, 5'-3' exonuclease PLD3; assay: Inhibition of PLD3 (unknown origin) using 3'-dT-MUP as substrate by fluorescence-based screening assay
[8] = target: T4, 5'-3' exonuclease PLD3 (Homo sapiens); assay: Mixed type inhibition of PLD3 (unknown origin) assessed as Km using varying concentration 3'-dT-MUP as substrate by fluorescence-based screening assay
[9] = target: T1, 5'-3' exonuclease PLD3; assay: Activation of PLD3 (unknown origin) using 3'-dT-nNPP as substrate by fluorescence-based screening assay
[10] = target: T3, 5'-3' exonuclease PLD4; assay: Activation of PLD4 (unknown origin) using 3'-dT-nNPP as substrate by fluorescence-based screening assay
[11] = target: T1, 5'-3' exonuclease PLD3; assay: Activation of PLD3 (unknown origin) using 3'-dT-MUP as substrate by fluorescence-based screening assay
[12] = target: T4, 5'-3' exonuclease PLD3 (Homo sapiens); assay: Activation of PLD3 (unknown origin) assessed as association constant using varying concentration 3'-dT-MUP as substrate by fluorescence-based screening assay; conditions: filed as activator
[13] = target: T3, 5'-3' exonuclease PLD4; assay: Activation of PLD4 (unknown origin) using 3'-dT-MUP as substrate by fluorescence-based screening assay
[14] = compound: Cc1cc(C)cc(N2CCn3c2nc2c3c(=O)n(CC(=O)O)c(=N)n2C)c1; assay: Competitive inhibition of PLD4 (unknown origin) assessed as Vmax using varying concentration 3'-dT-MUP as substrate by fluorescence-based screening assay; conditions: Homo sapiens
[15] = substrate: Cc1cn([C@H]2C[C@H](OP(=O)(O)Oc3ccc([N+](=O)[O-])cc3)[C@@H](CO)O2)c(=O)[nH]c1=O; assay: (§1) Substrate activity at PLD4 (unknown origin) assessed as Km by Michaelis-Menten kinetic model based fluorescence assay; conditions: Homo sapiens
[16] = substrate: Cc1cn([C@H]2C[C@H](O)[C@@H](COP(=O)(O)Oc3ccc([N+](=O)[O-])cc3)O2)c(=O)[nH]c1=O; assay: as §1; conditions: Homo sapiens
[17] = substrate: Cc1cn([C@H]2C[C@H](OP(=O)(O)Oc3ccc([N+](=O)[O-])cc3)[C@@H](CO)O2)c(=O)[nH]c1=O; assay: (§2) Substrate activity at PLD4 (unknown origin) assessed as ratio of Kcat to Km by Michaelis-Menten kinetic model based fluorescence assay; conditions: Homo sapiens
[18] = substrate: Cc1cn([C@H]2C[C@H](O)[C@@H](COP(=O)(O)Oc3ccc([N+](=O)[O-])cc3)O2)c(=O)[nH]c1=O; assay: as §2; conditions: Homo sapiens
[19] = substrate: Cc1cn([C@H]2C[C@H](OP(=O)(O)Oc3ccc([N+](=O)[O-])cc3)[C@@H](CO)O2)c(=O)[nH]c1=O; assay: (§3) Substrate activity at PLD4 (unknown origin) assessed as Kcat by Michaelis-Menten kinetic model based fluorescence assay; conditions: Homo sapiens
[20] = substrate: Cc1cn([C@H]2C[C@H](O)[C@@H](COP(=O)(O)Oc3ccc([N+](=O)[O-])cc3)O2)c(=O)[nH]c1=O; assay: as §3; conditions: Homo sapiens
[21] = substrate: Cc1cn([C@H]2C[C@H](OP(=O)(O)Oc3ccc([N+](=O)[O-])cc3)[C@@H](CO)O2)c(=O)[nH]c1=O; assay: (§4) Substrate activity at PLD3 (unknown origin) assessed as Kcat by Michaelis-Menten kinetic model based fluorescence assay; conditions: Homo sapiens
[22] = substrate: Cc1cn([C@H]2C[C@H](O)[C@@H](COP(=O)(O)Oc3ccc([N+](=O)[O-])cc3)O2)c(=O)[nH]c1=O; assay: as §4; conditions: Homo sapiens
[23] = substrate: Cc1cn([C@H]2C[C@H](OP(=O)(O)Oc3ccc([N+](=O)[O-])cc3)[C@@H](CO)O2)c(=O)[nH]c1=O; assay: (§5) Substrate activity at PLD3 (unknown origin) assessed as Km by Michaelis-Menten kinetic model based fluorescence assay; conditions: Homo sapiens
[24] = substrate: Cc1cn([C@H]2C[C@H](O)[C@@H](COP(=O)(O)Oc3ccc([N+](=O)[O-])cc3)O2)c(=O)[nH]c1=O; assay: as §5; conditions: Homo sapiens
[25] = substrate: Cc1cn([C@H]2C[C@H](OP(=O)(O)Oc3ccc([N+](=O)[O-])cc3)[C@@H](CO)O2)c(=O)[nH]c1=O; assay: (§6) Substrate activity at PLD3 (unknown origin) assessed as ratio of Kcat to Km by Michaelis-Menten kinetic model based fluorescence assay; conditions: Homo sapiens
[26] = substrate: Cc1cn([C@H]2C[C@H](O)[C@@H](COP(=O)(O)Oc3ccc([N+](=O)[O-])cc3)O2)c(=O)[nH]c1=O; assay: as §6; conditions: Homo sapiens
[27] = compound: Cc1nc(SCC(=O)N2CCC(C)CC2)c2ccsc2n1; assay: Activation of PLD3 (unknown origin) assessed as Km using varying concentration 3'-dT-MUP as substrate by fluorescence-based screening assay; conditions: Homo sapiens; filed as activator
[28] = compound: Cc1nc(SCC(=O)N2CCC(C)CC2)c2ccsc2n1; assay: Activation of PLD3 (unknown origin) assessed as Vmax using varying concentration 3'-dT-MUP as substrate by fluorescence-based screening assay; conditions: Homo sapiens; filed as activator
[29] = compound: Cc1ccc(Cn2c(SCC(=O)O)nc3c2c(=O)n(C)c(=O)n3C)cc1; assay: (§7) Mixed type inhibition of PLD3 (unknown origin) assessed as Vmax using varying concentration 3'-dT-MUP as substrate by fluorescence-based screening assay; conditions: Homo sapiens
[30] = compound: Cc1cc(C)cc(N2CCn3c2nc2c3c(=O)n(CC(=O)O)c(=N)n2C)c1; assay: as §7; conditions: Homo sapiens

Cc1cc(C)cc(N2CCn3c2nc2c3c(=O)n(CC(=O)O)c(=N)n2C)c1
IC50 [1]: 127 µM
INH [2]: 32.4 µM
IC50 [3]: 14.7 µM
INH [4]: 28.9 µM
IC50 [5]: 19 µM
INH [6]: 64.5 µM
IC50 [7]: 39.6 µM
INH [8]: 14.9 µM

Cc1nc(SCC(=O)N2CCC(C)CC2)c2ccsc2n1
EC50 [9]: 19.6 µM
EC50 [10]: Not Active
EC50 [11]: 12.8 µM
Ka [12]: 80.9 µM
EC50 [13]: 115 µM

Cc1ccc(Cn2c(SCC(=O)O)nc3c2c(=O)n(C)c(=O)n3C)cc1
IC50 [1]: 8.9 µM
IC50 [3]: 142 µM
INH [4]: 6.2 µM
IC50 [5]: 128 µM
IC50 [7]: 13 µM
INH [8]: 13.6 µM

B1: 5'-3' exonuclease PLD4 (Homo sapiens), Q96BZ4 (protein)
chain: MLKPLWKAAVAPTWPCSMPPRRPWDREAGTLQVLGALAVLWLGSVALICLLWQVPRPPTWGQVQPKDVPRSWEHGSSPAWEPLEAEARQQRDSCQLVLVESIPQDLPSAAGSPSAQPLGQAWLQLLDTAQESVHVASYYWSLTGPDIGVNDSSSQLGEALLQKLQQLLGRNISLAVATSSPTLARTSTDLQVLAARGAHVRQVPMGRLTRGVLHSKFWVVDGRHIYMGSANMDWRSLTQVKELGAVIYNCSHLAQDLEKTFQTYWVLGVPKAVLPKTWPQNFSSHFNRFQPFHGLFDGVPTTAYFSASPPALCPQGRTRDLEALLAVMGSAQEFIYASVMEYFPTTRFSHPPRYWPVLDNALRAAAFGKGVRVRLLVGCGLNTDPTMFPYLRSLQALSNPAANVSVDVKVFIVPVGNHSNIPFSRVNHSKFMVTEKAAYIGTSNWSEDYFSSTAGVGLVVTQSPGAQPAGATVQEQLRQLFERDWSSRYAVGLDGQAPGQDCVWQG
Vmax [14]: 1560 /RU/s
kcat [15]: 18.9 s⁻¹
kcat [16]: 47 s⁻¹
kcat/Km [17]: 5 M⁻¹ s⁻¹
kcat/Km [18]: 86.6 M⁻¹ s⁻¹
Km [19]: 378 µM
Km [20]: 860 µM

B2: 5'-3' exonuclease PLD3 (Homo sapiens), Q8IV08 (protein)
chain: MKPKLMYQELKVPAEEPANELPMNEIEAWKAAEKKARWVLLVLILAVVGFGALMTQLFLWEYGDLHLFGPNQRPAPCYDPCEAVLVESIPEGLDFPNASTGNPSTSQAWLGLLAGAHSSLDIASFYWTLTNNDTHTQEPSAQQGEEVLRQLQTLAPKGVNVRIAVSKPSGPQPQADLQALLQSGAQVRMVDMQKLTHGVLHTKFWVVDQTHFYLGSANMDWRSLTQVKELGVVMYNCSCLARDLTKIFEAYWFLGQAGSSIPSTWPRFYDTRYNQETPMEICLNGTPALAYLASAPPPLCPSGRTPDLKALLNVVDNARSFIYVAVMNYLPTLEFSHPHRFWPAIDDGLRRATYERGVKVRLLISCWGHSEPSMRAFLLSLAALRDNHTHSDIQVKLFVVPADEAQARIPYARVNHNKYMVTERATYIGTSNWSGNYFTETAGTSLLVTQNGRGGLRSQLEAIFLRDWDSPYSHDLDTSADSVGNACRLL
kcat/Km [21]: 6.26 M⁻¹ s⁻¹
kcat/Km [22]: 34.8 M⁻¹ s⁻¹
Km [23]: 302 µM
Km [24]: 1350 µM
kcat [25]: 18.9 s⁻¹
kcat [26]: 74.5 s⁻¹
Km [27]: 14.7 µM
Vmax [28]: 327 /RU/s
Vmax [29]: 313 /RU/s
Vmax [30]: 318 /RU/s
